Measured values taken from article PMC2761383, “Structural and functional characteristics of xenavidin, the first frog avidin from Xenopus tropicalis” (BMC Structural Biology, 2009).

What was measured:
[1] = Optical biosensor analysis (Biacore X) of 2-iminobiotin binding
Text: The Biacore X optical biosensor instrument was used in the analysis, where the CM5 sensor chip was functionalized with 2-iminobiotin. The functionalization of the chip was done in three phases: First, the carboxymethyl dextrane was activated using a mixture containing 0.2 M EDC (1-ethyl-3-(3-dimethylaminopropyl) carbodiimide hydrochloride) and 0.05 M NHS (N-hydroxysuccinimide) in water. Second, in order to introduce amino groups to the surface, 1 M ethylenediamine (Fluka 03550) in water was applied. Third, a mixture of EDC (0.2 M) and 2-iminobiotin (10 mM) was applied on the surface in 25 mM Na-phosphate pH 6.5. The amount of 2-iminobiotin attached on the surface was 81 response units.
Xenavidin was injected onto the sensor chip in a 50 mM sodium carbonate buffer (pH 11.0) containing 1 M NaCl at 25°C and using a flow rate of 50 μl/min. […] The surface was regenerated between measurement cycles by injecting 20 μl of 0.5 M acetic acid followed by washing with the measurement buffer.
BIAevaluation software v. 4.1 was used for data analysis, and a global fitting method was used to analyze the data set. A period of 20 seconds from the beginning of each injection was included in the association phase fit and the dissociation rate analysis was performed for a 60-second period starting immediately after the end of the injection.

[2] = system: proteinase K; assay: Limited proteolysis with proteinase K
Method: The stability of xenavidin against the proteinase K enzyme, which is known to cleave the L3,4-loop of avidin [41], was tested. The assay was performed in the presence or absence of biotin as previously described by Laitinen et al.. Protein samples were taken before the enzyme treatment and after adding enzyme at time points 30 min, 1 h, 2 h, 3 h, 18 h and 22 h (data not shown), and the samples were analyzed using SDS-PAGE analysis and Coomassie Brilliant Blue (Serva, Heidelberg, Germany) staining.

[3] = Fluorescence spectroscopy dissociation analysis of fluorescent Bf560-biotin; type: binding
Method: The Quanta Master™ spectrofluorometer (Photon Technology International Inc., Lawrenceville, NJ) with a PTI Fluorescence Master System and the software Felix 32 was used to measure the biotin-binding properties of avidin, xenavidin and streptavidin. The analyses were done in a 50 mM sodium phosphate buffer (pH 7.0) containing 650 mM NaCl at two different temperatures (25 ± 1°C and 50 ± 1°C) by measuring the reversing of quenching of the biotin-coupled fluorescent probe ArcDia™ Bf560 (ArcDia Ltd., Turku, Finland) due to competition with free biotin (100-fold molar excess) as previously described. The spectrum of Bf560-biotin in the presence and absence of avidin is shown in [Additional file 4].

[4] = 2-iminobiotin chip, pH 11.0, 1 M NaCl, 25°C
[5] = competition with free biotin (100-fold molar excess), pH 7.0

Kd [1, 4]	kass [1, 4]	kdiss [1, 4]	Kd ([1]; 2-iminobiotin functionalized chip, rounded value)	Substance	stability against proteinase K ([2]; absence of biotin)	stability against proteinase K ([2]; presence of biotin)	Dissociation rate constant at 25°C ([3]; 25°C, competition with free biotin (100-fold molar excess), pH 7.0)	Dissociation rate constant at 50°C [3, 5]	Release after 1 h at 50°C [3]
102 nM	94000 M⁻¹ s⁻¹	0.0096 s⁻¹	100 nM	Avidin: chicken avidin, biotin-binding protein; control sample expressed in E. coli	fragments of 10 kDa and below	protected avidin from proteolytic cleavage	2.3 s^-1 (× 10^-5)	32.6 s^-1 (× 10^-5)	76.5%
85 nM	200000 M⁻¹ s⁻¹	0.017 s⁻¹		Streptavidin: bacterial biotin-binding protein from Streptomyces avidinii (Biomol GmbH); control sample				0.7 s^-1 (× 10^-5)	5.1%
